Reference: patent publication US20240341301A1 (The Regents of the University of Michigan, priority 2023, published 2024)

What was measured:
[1] = test system: H3K9 and H3K27 histone acetylation; experiment: Histone acetylation Western blot in cold-preserved human donor hearts; conditions: HTK containing VPA, cold (4° C.) static preservation 8 h
Description: Heart procurement for both human and pigs were performed as follows. A sternotomy is performed under general anesthesia. The pericardium is then opened to create a pericardial cradle for the heart. Heparin (300U/kg) administered through the right atrium or in a peripheral vein. After waiting 3 minute for adequate anticoagulation from heparin, a 9 Fr antegrade plegia infusion catheter is placed in the ascending aorta. Approximately 1 liter of autologous donor arterial blood is then collected into a collection bottle containing heparin. […] Subsequently, the ascending aorta is cross-clamped distal to the cardioplegia catheter and 1 liter of cold (4° C.) HTK solution is infused into the coronaries at a perfusion pressure of ˜80 mmHg to induce mechanical arrest. After excising the heart completely, it is transported to the back-table for infusion of 2 liters of HTK±VPA solution. After completion, the heart is stored in a solution identical to the perfusate at 4° C. on ice.
Pig hearts underwent ex-vivo perfusion after preservation for 4 or 10 hours. Approval for human heart procurement was obtained from the University of Michigan Institutional Review Board (HUM00131275). Human donor hearts from deceased brain death donors were procured as per standard clinical protocols from the Gift of Life Michigan (GOLM) organ procurement facility. […]

[2] = test system: murine donor hearts; experiment: Murine donor heart tissue staining and Western blot (oxidative stress, antioxidant proteins, cell death); set-up: species or system mouse
Description: Male and female WT or Irg1^−/− mice (Jackson laboratories, Bar Harbor, ME) were anesthetized intraperitoneally with 80 mg/kg ketamine and 5 mg/kg xylazine, anticoagulated with heparin (2,000 U/kg iv), and the heart was rapidly exposed through a sternal incision. The aorta was cannulated and retrograde perfused in-situ with HTK solution±HDAC inhibitors. After cannulation, the heart dissected free, the left atrium was opened. For 4-OI (Cayman Chemical, 25374) experiments, donor mice were treated 4-OI (dissolved in 40% β-Cyclodextrin, 50 mg/kg intraperitoneally) or vehicle control (40% β-Cyclodextrin intraperitoneally) 2 hours prior to donor heart procurement. After dissection, the heart was stored at 4° C. with HTK or HTK with VPA for a pre-designated duration. The hearts were then mounted on a Radnoti mouse Langendorff apparatus (ADInstruments inc., Colorado Springs, CO) in constant-pressure mode (˜70 mmHg) with a modified Krebs-Henseleit buffer (KHB; in mM: 118 NaCl, 4.7 KCl, 1.25 CaCl2), 1.66 MgSO4, 24.88 NaHCO3, 1.18 KH2PO4, 5.55 glucose, and 2.0 Na-pyruvate). A balloon was placed in the LV through the left atrium and left ventricular diastolic pressure was set to ˜8 mmHg at initiation. The heart was perfused with modified Krebs-Henseleit buffer for 30 min to stabilize and then hemodynamics measurements were recorded. Myocardial temperature was maintained at 37° C. LabChart software (ADInstruments inc., Colorado Springs, CO) was used to record ventricular function, perfusion pressures, cardiac chamber temperature and myocardial temperature. After perfusing the heart for 60 minutes, the heart was removed from the ex-vivo perfusion apparatus for specimen collection. Tissue was immediately placed in liquid N2 or treated with 4% formalin.

[3] = test system: transplanted murine donor hearts; experiment: Murine heterotopic syngeneic heart transplantation; assay type: in vivo, mouse
Description: Cardiac grafts procured from WT C57Bl/6J mice following arrest with cold (4° C.) HTK±VPA were transplanted into the right neck of sex-matched syngeneic C57BL/6J recipient mice following 16 hours of cold (4° C.) preservation in corresponding HTK±VPA solution as previously described (59). A cuff technique was used to connect the recipient right common carotid artery and right external jugular vein to the donor ascending aorta and pulmonary artery, respectively. Following reperfusion in the recipient, successful grafts were expected to resume a regular heartbeat. At 24 hours after reperfusion, the surgical incision was reopened and a small conductance catheter was introduced into the LV to measure contractility and relaxation.
Blood from recipient mice was centrifuged at 3000 g in 4° C. for 10 minutes. Serum was aliquoted and snap-frozen. Serum cTnT, cTnI, TNFα, IL-6, IP10 and MIG concentrations were measured using Sigma-Aldrich MILLIPLEX kits (Cat. No.: MCYTMAG, MCVD2MAG). Pig arterial perfusate was centrifuged at 3000 g in 4° C. for 10 minutes. The abundance of cTnI, IL-1β, IL-6 and TNF-α was detected using Sigma MILLIPLEX kit (Cat. No.: MCVD2MAG, PCYTMAG).

[4] = test system: IRG1; experiment: IRG1 enhancer ChIP-qPCR and mRNA expression in human donor heart tissue
Description: Pig hearts underwent ex-vivo perfusion after preservation for 4 or 10 hours. Approval for human heart procurement was obtained from the University of Michigan Institutional Review Board (HUM00131275). Human donor hearts from deceased brain death donors were procured as per standard clinical protocols from the Gift of Life Michigan (GOLM) organ procurement facility. Myocardial biopsies (˜5 mm^3) of LV were biopsied immediately after cardioplegic arrest (0 h) and after 8 hours (8 h) of cold storage in a cooler containing ice. […] Causes of death were stroke (n=4), trauma (n=2), drug overdose (n=1), and cardiac arrest (n=1). Heart tissue were either fixed in formalin or snap frozen in liquid N2 for later analysis.

[5] = 16 hours preservation, ex-vivo perfusion
[6] = ex vivo perfused WT murine hearts
[7] = 16 h cold preservation, 24 h reperfusion in recipient
[8] = recipient serum after transplantation

## CCCC(CCC)C(=O)O [VPA, 2-Propyl-pentanoic acid]
[1]
  histone acetylation (H3K9, H3K27) after prolonged cardiac preservation: maintained
[2]; [5]
  overall oxidative stress (DHE staining): decreased
  oxidative DNA damage (8OHdG staining): decreased
[2]; Irg1−/− hearts
  NRF2 nuclear translation effect: greatly reduced
  benefit on TUNEL staining in α-actinin+ cardiomyocytes: lost
[2]; Irg1−/− murine hearts
  antioxidant protein expression: no increase
[2]; WT hearts
  NRF2 nuclear translation from the cytoplasm: induced
[2]; [6]
  protein abundance of HO1: upregulated
  protein abundance of SOD1: upregulated
  protein abundance of SOD2: not
  protein abundance of total NRF2: upregulated
[2]; preserved and transplanted murine hearts
  ratio of reduced (GSH) versus oxidized glutathione (GSSG): increased
[2]; wild type hearts
  TUNEL staining in α-actinin+ cardiomyocytes: reduced
[3]; [7]
  improvement of in vivo donor heart contractility (max dP/dt) compared to standard HTK solution alone: 265%
  improvement of in vivo donor heart relaxation (min dP/dt) compared to standard HTK solution alone: 250%
[3]; TUNEL
  cell death in transplanted heart tissue: reduced
[3]; [8]
  serum concentration of IL-6: reduced
  serum concentration of IP-10: reduced
  serum concentration of MIG: reduced
  serum concentration of TNFα: reduced
  serum troponin I: reduced
  serum troponin T: reduced
[3]; transplanted heart tissue
  leukocyte infiltration: reduced
[4]; 8-hours of preservation compared to HTK alone
  IRG1 enhancer activity (H3K27ac ChIP-qPCR): increased
[4]; human hearts after preservation
  IRG1 mRNA transcript expression: increased
